According to patent US20140154666A1, “Erythrocyte Preservation Method” (Trustees of Dartmouth College, priority 2012, published 2014):

Assays:
erythrocyte concentrate [1] = conditions: presence of DEHP plasticizer in the storage container; cited from earlier work
erythrocyte concentrate [2] = assay: Hemolysis of erythrocyte concentrate after 42 days of refrigerated storage; type: cell-based; conditions: FIG. 1
Description: (§1) Referring now to FIGS. 1-2, test results of two different erythrocyte concentrates are illustrated. The first erythrocyte concentrate is identified by, number 2032 and the second erythrocyte concentrate is identified by number 2086. Each of the samples was divided into four different containers. […] Also, for each sample, two of the containers included a gas system of 99.9% by volume xenon gas. The graphs indicate which container included or were absent xenon gas and/or DEHP plasticiser. The testing protocol for the containers was as follows:
(§2) For Containers That Are Absent Xe Gas:
(§3) a. Place non-Xe units flat on a rotator for 3.5 hours.
(§4) b. Place non-Xe units in blood bank refrigerator at the same time as the Xe units.
(§5) For Containers That Include Xe Gas:
(§6) a. Place Xe units flat in a pretested hyperatmic chamber.
(§7) b. Evacuate the chamber with vacuum to remove oxygen from the Xe units.
(§8) c. Pressurize the chamber with Xe gas at 4 atm.
(§9) d. Vent the chamber of Xe gas.
(§10) e. Pressurize the chamber with Xe gas at 4 atm.
(§11) f Vent the chamber of Xe gas.
(§12) g. Pressurize the chamber with Xe gas at 4 atm.
(§13) h. Vent the chamber of Xe gas.
(§14) i. Pressurize the chamber with Xe gas at 4 atm.
(§15) j. Place the pressurized Xe unit on an agitator for 3.5 h.
k. Place the pressurized Xe unit in a blood bank refrigerator at the same time as the non-Xe units.
While the Xe units and non-Xe units are in the blood bank refrigerator, the Xe units were periodically checked over a 42 day period to ensure that the pressure in the Xe units exceeded 1 atm. After 42 days, all of the units were removed from the blood bank refrigerator. After the units were removed from the blood bank refrigerator, the following procedures where conducted on the units:
1. Immediately place the pressurized Xe units and non-Xe units on a platelet to and-fro horizontal agitator for 10 minutes.
2. Depressurize all of the units by opening a value on the container.
3. Place all units on a bench top and hold for 3 hours.
4. Following the 3 hour hold period, test the samples for percentage of hemolysis and the ATP content.

erythrocyte concentrate [3] = assay: ATP content of erythrocyte concentrate after 42 days of refrigerated storage; type: cell-based; conditions: FIG. 2, samples 2032 and 2086, 99.9% by volume xenon gas, treated vs not treated
Description: as §1, §2, §3, §4, §5, §6, §7, §8, §9, §10, §11, §12, §13, §14, §15
k. Place the pressurized Xe unit in a blood bank refrigerator at the same time as the non-Xe units. […]

Row | SMILES | number of erythrocytes that lysed during the storage of the erythrocyte concentrate (erythrocyte concentrate [1]) | hemolysis (erythrocyte concentrate [2]; 42 days, DEHP plasticiser added to a container that included xenon gas) | amounts of hemolysis (erythrocyte concentrate [2]; 42 days, containers that include DEHP plasticiser vs containers without) | ATP content in the erythrocyte concentrate (erythrocyte concentrate [3]) | amounts of hemolysis (erythrocyte concentrate [2]; 42 days, xenon gas with no DEHP plasticiser vs container with DEHP plasticiser and no xenon gas) | percent of hemolysis (erythrocyte concentrate [2]; samples 2032 and 2086, 99.9% by volume xenon gas at 4 atm, 42 days in blood bank refrigerator, treated vs not treated with xenon gas)
1 | CCCCC(CC)COC(=O)c1ccccc1C(=O)OCC(CC)CCCC (stereo not drawn) [DEHP plasticiser, his (2-ethylhexyl) phthalate] | reduces the number of erythrocytes that lysed | further reduction of hemolysis | Reduced amounts of hemolysis |  |  | 
2 | [Xe] [xenon gas, Xenon] |  |  |  | higher ATP content | lower amounts of hemolysis | significantly less
